These results are taken from US10717704B2, “Inhibitors of creatine transport and uses thereof” (Rgenix, Inc., priority 2014, dated 2020).

The target of one assay is T1, creatine transporter (Mus musculus, UniProt Q8VBW1).
T1 construct: from tissue; host or cells: heart of C57Bl6 male mice (in vivo dosing)
T1 sequence (Q8VBW1 1-635): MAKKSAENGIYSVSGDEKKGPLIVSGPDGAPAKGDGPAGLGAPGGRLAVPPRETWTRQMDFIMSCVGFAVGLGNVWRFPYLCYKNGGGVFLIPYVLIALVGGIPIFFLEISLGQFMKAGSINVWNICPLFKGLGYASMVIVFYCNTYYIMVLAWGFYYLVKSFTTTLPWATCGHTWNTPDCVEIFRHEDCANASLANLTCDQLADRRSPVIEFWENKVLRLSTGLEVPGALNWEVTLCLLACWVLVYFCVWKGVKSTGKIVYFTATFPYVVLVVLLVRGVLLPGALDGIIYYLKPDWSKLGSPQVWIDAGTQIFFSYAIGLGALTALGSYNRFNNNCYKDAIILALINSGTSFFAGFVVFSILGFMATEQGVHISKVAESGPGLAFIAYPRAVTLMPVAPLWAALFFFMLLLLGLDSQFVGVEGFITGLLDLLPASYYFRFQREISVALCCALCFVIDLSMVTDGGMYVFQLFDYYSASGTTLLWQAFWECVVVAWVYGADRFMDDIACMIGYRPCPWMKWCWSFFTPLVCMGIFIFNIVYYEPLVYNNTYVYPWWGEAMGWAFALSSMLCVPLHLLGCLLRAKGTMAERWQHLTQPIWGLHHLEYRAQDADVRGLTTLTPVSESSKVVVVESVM
The experiment in a line: In vivo creatine transporter inhibition assay (creatine-d3 transport in heart tissue). Also on record: species or system C57Bl6 male mice. Conditions: i.p. 250 mg/kg β-GPA equivalent (1.91 mmol/kg), creatine-d3 1 mg/kg i.p. 7 minutes after drug, hearts after one hour, relative to vehicle control, mean of three hearts. The method, then:
Soluble compounds were formulated in saline solution (0.9% NaCl). […] Studies were performed on 6-7 week old C57Bl6 male mice, receiving a regular diet (Purina 5001, Research Diet) and on a regular sleep rhythm (12 h night/day schedule). Experiments were performed ˜6 h after exposing to daylight. Mice were weighed and randomly divided into groups of 3 mice per group and injected i.p. with 100-200 μL of dosing solution to deliver 250 mg/kg (50 mg/mL or 381 mM) β-GPA equivalent (i.e. 1.91 mmol/kg) along with a vehicle control. […] Volumes were adjusted based on the weight of the mice to reach a final dose of 1 mg/kg. After one hour, mice were euthanized, hearts were perfused with PBS, removed, snap-frozen in liquid nitrogen, and stored at −80° C. until further processing. Mouse hearts were thawed and weighed into 1.5 mL Eppendorf conical tubes. Typical heart weights range from […]. […] The samples were then placed in a MiniBeadBeater (BioSpec Products, Inc.) for 2 minutes to disrupt the tissue and homogenize the sample. Aliqouts (20 μL) of the homogenized hearts were transferred to a 96-well microtiter plate. […] Supernatant (900 μL) was transferred to 96-well deep well plate for analysis. Calibration standards, blanks, and quality control samples are prepared from control mouse hearts homogenized as noted above. Aliquots of homogenate were then spiked with known quantities of creatine-d3 (CDN Isotopes, Pointe-Claire, Quebec) or solvent, and processed along with the samples as noted above. Analysis was conducted by LC-MS/MS using an Acquity UPLC (Waters Corp., Milford, Mass.)/Triple Quad 5500 (AB Sciex, Framingham, Mass.) system. […] A binary gradient of acetonitrile and 10 mM ammonium acetate was used to elute analytes from the column. The mass spectrometer was operated in positive ion electrospray in Multiple Reaction Monitoring mode for the following mass transitions: Data were collected and processed using Analyst 1.6.2 (AB Sciex, Framingham, Mass.). […] Data was report as μg of creatine-d3 per gram of heart. Mean values and standard deviations were calculated from three heart samples and percent creatine-d3 transport inhibition was reported relative to vehicle control.

For assay [1], the system named is LvM3b cells with CKB knockdown. Briefly: Liver metastasis of CKB knockdown LvM3b cells pre-treated with metabolite. Type of assay: in vivo, mice. The method, then: 5×10^5 highly metastatic cancer cells were injected into the portal circulation of immunodeficient mice. One day after inoculation of cancer cells, mice were injected indicated amounts of drug in 300 μL PBS. Treatment was continued daily and metastatic progression was monitored by bioluminescent imaging until the mice were euthanized at which point livers were excised for bioluminescent imaging and gross histology. Where indicated, cancer cells were pre-treated with indicated amounts of compound for 48 hrs before injection into immunodeficient mice.
CKB is known to regulate the reservoir of rapidly mobilized high-energy phosphates in tissues such as the brain and kidneys by catalyzing the transfer of a high-energy phosphate group from phosphocreatine to ADP, yielding ATP and creatine. It was hypothesized that CKB generation of ATP from phosphocreatine might provide colon cancer cells with an energetic advantage during hepatic colonization. […] Metastatic burden was monitored by bioluminescent imaging and mice euthanized 21 days after injection.
Similar studies were done to determine whether creatine and phosphocreatine could rescue the phenotype of seen upon CKB knock-down. […] Liver metastasis was monitored by bioluminescent imaging and mice were euthanized as described above.

Another assay addresses CKB (Homo sapiens, UniProt P12277). As to conditions: read-out: ki (inhibitor of CKB); cited from earlier work.
For the next assay, the system named is LvM3b cells. The experiment in a line: Liver metastasis assay, LvM3b colon cancer cells, drug treatment of mice. The format is in vivo, NOD-SCID mice. Conditions: for metastatic colonization (bioluminescent measurements of liver metastasis): 5×10^5 LvM3b cells, treated daily for two weeks, intra-peritoneal. The method, then:
One day after inoculation of cancer cells, mice were injected indicated amounts of drug in 300 μL PBS. Treatment was continued daily and metastatic progression was monitored by bioluminescent imaging until the mice were euthanized at which point livers were excised for bioluminescent imaging and gross histology. Where indicated, cancer cells were pre-treated with indicated amounts of compound for 48 hrs before injection into immunodeficient mice. […] The treatment regime started one day after inoculation of tumor cells and continued until the mice were euthanized. […] Treatment regime were as that for cyclocreatine treatment. Finally, assays were carried out to determine the impact of small-molecule inhibition of CKB and restriction of creatine availability on colon cancer metastasis. Cyclocreatine, which resembles phosphocreatine, is a transition-state analog for creatine kinases. […] The mice were then euthanized and livers excised for ex vivo imaging at the end of the treatment. […] Similar assays were carried out using a creatine transporter inhibitor beta-guanidinopropionic acid (β-GPA). […] In this example, assays were carried out to confirm the therapeutic potential of targeting the creatine transporter channel SLC6a8 by administering the small molecule β-GPA, which is an inhibitor of SLC6a8. […] To confirm this therapeutic effect, mice injected with LvM3b colon cancer cells we treated with either β-GPA or control vehicle (PBS) via intra-peritoneal injection daily for three weeks (FIG. 2). The mice were euthanized at three weeks and liver extracted for bioluminescent imaging and gross histology.

For assay [2], the system named is PANC1 pancreatic cancer cells. Briefly: Survival of disseminated PANC1 cells in vivo after β-GPA pre-treatment. The arrangement: species or system immunodeficient mice. The method, then: One day after inoculation of cancer cells, mice were injected indicated amounts of drug in 300 μL PBS. Treatment was continued daily and metastatic progression was monitored by bioluminescent imaging until the mice were euthanized at which point livers were excised for bioluminescent imaging and gross histology. Where indicated, cancer cells were pre-treated with indicated amounts of compound for 48 hrs before injection into immunodeficient mice.

Structures are written as SMILES.

Chain of CKB (P12277 whole entry): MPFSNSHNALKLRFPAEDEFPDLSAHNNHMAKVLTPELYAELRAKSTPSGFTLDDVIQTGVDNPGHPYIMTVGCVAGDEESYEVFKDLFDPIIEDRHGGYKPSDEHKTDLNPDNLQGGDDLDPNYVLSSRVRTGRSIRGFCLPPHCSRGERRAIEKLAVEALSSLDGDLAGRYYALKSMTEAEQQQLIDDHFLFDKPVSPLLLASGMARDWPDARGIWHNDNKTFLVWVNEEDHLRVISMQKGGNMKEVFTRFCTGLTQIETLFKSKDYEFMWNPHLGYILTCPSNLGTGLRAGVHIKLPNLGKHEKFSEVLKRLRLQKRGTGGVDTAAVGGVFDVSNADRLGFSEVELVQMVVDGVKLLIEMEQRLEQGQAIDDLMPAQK

In the case of `N=C(N)NCCC(=O)O` [28 (β-GPA)], on creatine transporter (mouse, ip), the inhibition (commonly the relative decrease from the control value, in per cent) at 250 mg/kg stood at 73.4%. For `Nc1ncnc2c1ncn2[C@@H]1O[C@H](COP(=O)(O)OP(=O)(O)OP(=O)(O)O)[C@@H](O)[C@H]1O` [ATP], the “enhancement of suppressed metastasis phenotype in cells depleted of CKB” value in assay [1] (LvM3b with CKB knockdown pre-treated with 100 uM ATP, 21 days) was “more than 10 folds”. Regarding `N=C(N)NC[C@H](N)C(=O)O` [Compound 125, (2S)-2-amino-3-carbamimidamidopropanoic acid], the “% Inhibition of Creatine-d3 Transport” value at creatine transporter came out at 4.5%. In the case of `C[C@H](CC(=O)O)NC(=N)N` [Compound 219, (3R)-3-carbamimidamidobutanoic acid], the “% Inhibition of Creatine-d3 Transport” value at creatine transporter stood at 79.0%.

On to `C[C@@H](CC(=O)O)NC(=N)N` [Compound 220, (3S)-3-carbamimidamidobutanoic acid], for which the “% Inhibition of Creatine-d3 Transport” value on creatine transporter is 1.4%. `N=C(N)N1CC(C(=O)O)C1` [Compound 258, 1-carbamimidoylazetidine-3-carboxylic acid]: on creatine transporter, the “% Inhibition of Creatine-d3 Transport” value is given as 71.8%. Regarding `N=C(N)NC(CC(=O)O)C(F)(F)F` (centres unmarked) [Compound 261, 3-guanidino-4,4,4-trifluorobutanoic acid], the “% Inhibition of Creatine-d3 Transport” value at creatine transporter came to 24.7%. As to `CCC(CC(=O)O)NC(=N)N` (centres unmarked) [Compound 358, 3-carbamimidamidopentanoic acid], the “% Inhibition of Creatine-d3 Transport” value on creatine transporter is 11.1%. For the compound `N=C(N)N1CCC(C(=O)O)C1` (centres unmarked) [Compound 376, 1-carbamimidoylpyrrolidine-3-carboxylic acid], at creatine transporter, the “% Inhibition of Creatine-d3 Transport” value is 39.1%. Consider `CN(CC(=O)O)C(=N)N` [creatine], for which the “rescue of metastasis suppression upon CKB knockdown” value in assay [1] (LvM3b cells with CKB knockdown pre-treated with 10 uM, day 21) was “rescued metastasis suppression”. For `NC1=NCCN1CC(=O)O` [cyclocreatine], the Ki (commonly the dissociation constant of the complex between target and ligand, obtained from inhibition or displacement) at CKB is 5 mM. The “metastatic colonization (bioluminescent measurements of liver metastasis)” value in the assay with LvM3b cells is recorded as “significantly reduced metastatic colonization”.

Turning to `N=C(N)NCCC(=O)O` [β-GPA, beta-guanidinopropionic acid], the “average photon flux ratio (bioluminescence imaging)” value was ~1.6 in assay [2] (5×10^5 PANC1 cells pre-treated 48 hours with 10 mM, day 1 signal normalized to day zero, control group about 2.7) and ~100 with LvM3b cells (LvM3b cells, β-GPA intra-peritoneal daily for three weeks, control group about 800). In assay [2] (PANC1 cells pre-treated 48 hours with 10 mM, one day after injection), the “tumor burden of pancreatic cancer cells in vivo” value is reported as “significant reduction in the tumor burden”. The “metastatic colonization (bioluminescent measurements of liver metastasis)” value in the assay on LvM3b cells was “significantly reduced metastatic colonization”. Further, in the assay with LvM3b cells (LvM3b cells, daily treatment for three weeks, bioluminescent imaging and gross anatomical examination), the “colon cancer metastasis to the liver” value is “significant reduction in colon cancer metastasis to the liver”.
